“Also recorded” adds a separate entry of the source. Positions of bridges follow the written chain, without caps; N, C: chain ends. Non-standard residues stand in square brackets, D forms with d. Primed or numbered codes have the meaning given here. FAM = 5(6)-carboxyfluorescein label; S5 = C=CCCC[C@](C)(N)C(=O)O; PEG3′ = PEG3 spacer
Key:
[1] = test system: primary cortical neurons expressing G2019S-LRRK2; test: Assessment of neuronal death (apoptotic nuclear features of transfected neurons); type: cell-based, mouse; conditions: 48hr treatment, vs vehicle
Source text: Disruption of the LRRK2-FADD PPI is neuroprotective. It has been previously shown that over-expression of mutant LRRK2 (G2019S or other pathogenic mutations) in primary cortical neurons results in apoptotic death of the neurons (see Iaccarino C, Crosio C, Vitale C, Sanna G, Carri MT, Barone P (2007) Apoptotic mechanisms in mutant LRRK2-mediated cell death. Hum Mol Genet 16, 1319-1326); and this example continues this area of identifying pathway(s) underlying cell-autonomous neuronal death in models of LRRK2-PD. […] Disruption of this interaction by dominant negative fragments of both FADD and LRRK2, or by deletion of the predicted FADD-binding domain within LRRK2, is neuroprotective against over-expression of mutant LRRK2. To determine whether FARMS could effectively disrupt the apoptotic death of primary neurons induced by pathogenic LRRK2, mouse embryonic cortical neurons were transiently transfected with G2019S-LRRK2 and increasing concentrations of the FARMS peptide were added. In cultures of neurons expressing G2019S-LRRK2, apoptotic Flag-positive neurons with characteristic fragmented and condensed nuclear apoptotic features, were observed as has been reported previously. […] A third neuron is visible within this field (with a condensed nucleus), however it is not expressing Flag-LRRK2, so would not be included in the assessment of neuronal death. the dose response of neuroprotection of FARMS was determined by counting the percentage of transfected neurons (stained with anti-Flag antibodies).
Assessment of Neuronal Death. […] Cells were centrifuged and counted and plated on poly-D-lysine coated glass coverslips at a density of 150,000/cm^2 in BrainPhys neuronal culture medium (StemCell Technologies) supplemented with SM1 Neuronal Supplement (StemCell Technologies), L-glutamine (0.5 mM) and […]. […] For quantification of apoptotic neuronal profiles, we used the approach described by Antoniou and colleagues. Briefly, individual Flag-positive neurons were assessed by a research blinded to the experimental conditions.

[2] = molecular target: T1, LRRK2-FADD PPI (Flag G2019S-LRRK2 and V5-FADD) (Homo sapiens, UniProt Q5S007, G2019S); test: Co-immunoprecipitation of LRRK2-FADD interaction in transfected HEK293T cells; type: cell-based
T1 construct: expressed in transfected cells; host or cells: HEK293T
T1 sequence (Q5S007 whole entry G2019S): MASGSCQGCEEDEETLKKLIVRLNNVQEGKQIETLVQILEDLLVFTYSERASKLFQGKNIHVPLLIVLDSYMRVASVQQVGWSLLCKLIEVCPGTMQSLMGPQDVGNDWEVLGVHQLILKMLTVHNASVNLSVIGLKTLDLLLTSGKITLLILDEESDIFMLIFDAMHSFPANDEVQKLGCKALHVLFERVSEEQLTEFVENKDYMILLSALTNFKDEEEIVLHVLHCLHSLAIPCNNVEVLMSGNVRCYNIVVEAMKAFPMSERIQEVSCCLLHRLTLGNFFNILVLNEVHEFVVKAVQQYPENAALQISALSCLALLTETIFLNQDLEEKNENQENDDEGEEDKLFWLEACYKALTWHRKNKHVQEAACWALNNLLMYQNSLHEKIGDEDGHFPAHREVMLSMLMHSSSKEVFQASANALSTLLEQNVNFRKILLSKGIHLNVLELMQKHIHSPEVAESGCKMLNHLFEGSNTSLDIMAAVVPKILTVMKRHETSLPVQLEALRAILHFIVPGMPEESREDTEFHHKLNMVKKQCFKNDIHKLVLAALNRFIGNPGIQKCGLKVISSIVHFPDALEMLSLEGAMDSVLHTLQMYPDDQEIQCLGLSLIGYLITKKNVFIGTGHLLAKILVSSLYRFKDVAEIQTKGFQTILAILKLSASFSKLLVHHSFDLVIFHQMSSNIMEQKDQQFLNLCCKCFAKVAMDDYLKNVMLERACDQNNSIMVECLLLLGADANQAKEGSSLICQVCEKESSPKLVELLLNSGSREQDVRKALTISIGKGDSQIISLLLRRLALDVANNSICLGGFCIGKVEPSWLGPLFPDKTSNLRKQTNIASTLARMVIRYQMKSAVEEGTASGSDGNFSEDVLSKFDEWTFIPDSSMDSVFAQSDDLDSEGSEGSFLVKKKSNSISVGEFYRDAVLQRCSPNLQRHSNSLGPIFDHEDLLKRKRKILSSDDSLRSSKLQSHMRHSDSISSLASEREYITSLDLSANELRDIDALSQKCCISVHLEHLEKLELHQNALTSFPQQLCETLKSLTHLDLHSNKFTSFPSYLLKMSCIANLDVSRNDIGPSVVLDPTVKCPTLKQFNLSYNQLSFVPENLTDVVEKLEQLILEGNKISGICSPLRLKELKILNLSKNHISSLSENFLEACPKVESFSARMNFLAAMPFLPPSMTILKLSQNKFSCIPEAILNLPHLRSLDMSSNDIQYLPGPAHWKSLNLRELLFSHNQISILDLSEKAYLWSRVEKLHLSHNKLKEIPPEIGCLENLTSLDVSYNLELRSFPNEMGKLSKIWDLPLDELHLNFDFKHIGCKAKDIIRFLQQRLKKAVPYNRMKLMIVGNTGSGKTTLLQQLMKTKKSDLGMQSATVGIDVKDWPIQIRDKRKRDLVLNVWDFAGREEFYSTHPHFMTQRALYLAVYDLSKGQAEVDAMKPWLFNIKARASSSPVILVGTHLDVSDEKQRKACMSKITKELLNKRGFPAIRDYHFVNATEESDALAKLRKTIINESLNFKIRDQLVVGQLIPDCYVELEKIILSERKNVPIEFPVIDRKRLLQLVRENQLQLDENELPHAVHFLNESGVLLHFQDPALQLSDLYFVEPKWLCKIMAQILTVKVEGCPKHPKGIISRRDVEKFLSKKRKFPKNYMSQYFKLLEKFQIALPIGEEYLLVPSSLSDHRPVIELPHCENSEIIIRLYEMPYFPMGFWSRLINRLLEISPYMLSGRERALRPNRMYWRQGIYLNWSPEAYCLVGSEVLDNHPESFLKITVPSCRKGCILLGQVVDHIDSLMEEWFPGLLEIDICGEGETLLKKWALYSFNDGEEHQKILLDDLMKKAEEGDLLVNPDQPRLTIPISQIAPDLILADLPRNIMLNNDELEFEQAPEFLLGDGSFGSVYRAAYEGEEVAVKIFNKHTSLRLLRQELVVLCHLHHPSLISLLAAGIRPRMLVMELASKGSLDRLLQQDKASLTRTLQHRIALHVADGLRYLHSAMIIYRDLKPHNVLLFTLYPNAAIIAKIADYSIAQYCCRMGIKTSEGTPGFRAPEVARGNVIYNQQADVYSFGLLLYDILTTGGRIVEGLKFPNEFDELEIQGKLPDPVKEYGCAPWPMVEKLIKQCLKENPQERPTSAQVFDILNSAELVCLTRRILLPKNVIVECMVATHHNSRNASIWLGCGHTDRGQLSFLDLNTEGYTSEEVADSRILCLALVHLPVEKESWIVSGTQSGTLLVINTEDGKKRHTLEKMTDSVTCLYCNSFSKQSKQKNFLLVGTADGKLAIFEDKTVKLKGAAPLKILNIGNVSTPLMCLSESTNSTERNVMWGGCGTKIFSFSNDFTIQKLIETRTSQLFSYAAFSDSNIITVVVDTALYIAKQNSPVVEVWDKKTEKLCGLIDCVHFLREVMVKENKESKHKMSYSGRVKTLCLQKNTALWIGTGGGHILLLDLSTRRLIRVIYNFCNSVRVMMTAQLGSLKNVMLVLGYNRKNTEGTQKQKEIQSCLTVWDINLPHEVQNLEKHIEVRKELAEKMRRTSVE
Description: It was then assessed whether this peptide library (FARM1-FARM5) could disrupt the interaction between over-expressed Flag G2019S-LRRK2 and V5-FADD by co-immunoprecipitation. Flag-LRRK2 was purified on anti-Flag resin and the eluate as well as the protein extract (input) separated by SDS-PAGE, with the membranes probed for V5 (FADD) and Flag (LRRK2). The transfected cells were treated with the indicated peptide (10 µM) for a total of 48 hr prior to collection. […] To minimize the use of primary mouse cortical neuron cultures, FARMS was used in subsequent experiments to examine the potential neuroprotective effects of LRRK2-FADD disruption.
Assessment of LRRK2-FADD interaction. Co-immunoprecipitation was undertaken to determine the effects of the stapled peptides on the LRRK2-FADD PPI, as previously described. Briefly, 10cm plates of HEK293T cells transiently expressing Flag-WT or mutant LRRK2 and V5-FADD (at a 3:1 ratio), and treated with different concentrations of FARM peptides (as indicated in the Figure legends), were washed in PBS and lysed in co-IP buffer (20mM HEPES, pH7.4; 150 mM NaCl; 0.1% NP40; 2 mM EGTA; 2 mM MgCl2; 10% glycerol, pH 7.2; protease and phosphatase cocktail [Agilent Technologies]) for 30 min on ice followed by 15 strokes with a Dounce glass homogenizer, and centrifugation at 13000 rpm for 15 min to remove cellular debris. Following pre-clearing with IgG-coupled beads, 40 µl of washed anti-Flag resin (Sigma-Aldrich) per mg of protein was added and the samples incubated under rotation overnight at 4°C. The following morning, the beads were centrifuged and washed a total of 5X with coIP buffer, before elution in 2X SDS sample buffer at 95°C for 10 min. The eluate (and input) was separated by SDS-PAGE and membranes probed with anti-Flag (LRRK2) and V5 (FADD).

R1441C-LRRK2 = molecular target: T2, R1441C-LRRK2 (Homo sapiens, UniProt Q5S007, R1441C); test: LRRK2 kinase function in HEK293T cells over-expressing R1441C-LRRK2, endogenous Rab10 (western blot); type: cell-based; conditions: increasing doses of peptide
T2 construct: expressed in transfected cells; host or cells: HEK293T
T2 sequence (Q5S007 whole entry R1441C): as the sequence (Q5S007 whole entry G2019S) above, with R1441C, S2019G counted along it
Description: Assessment of LRRK2 kinase function. To determine whether peptides targeting the LRRK2-FADD PPI could also alter kinase function, LRRK2 activity was assessed in a cellular setting, through the phosphorylation of an endogenous substrate (pT73-Rab10), as well as auto-phosphorylation (pS1292-LRRK2). […] Parallel cultures were transfected with only WT or R1441C-LRRK2; and endogenous levels of phosphorylated RablO were assessed. Following 72hr of total expression, the cells were washed in cold PBS and collected. Cell lysis was performed using the following buffer: 50mM Tris HCl, pH 7.5; 1mM EGTA; 0.27 M sucrose; 1% Triton X-100; supplemented with protease and phosphatase inhibitor cocktails, and cell extracts stored at -80°C until use. The extracts were separated by SDS-PAGE and proteins transferred to nitrocellulose membranes, which were probed for total/pS1292-LRRK2, total/pT73-Rab10, or β-actin. For quantification, the band intensities for phosphorylated Rab 10 or LRRK2 were normalized to total expression of the respective protein.

## FARM5: FAM-labeled hydrocarbon-stapled FADD Armadillo domain peptide; mass fits SEQ ID NO. 6 KVADLVQEVQQAXDLQXRSK ({FAM-PEG3′}-KVADLVQEVQQA[S5]DLQ[S5]RSK-NH2; staple 13-17; also: FAM label, optionally 5(6)FAM-PEG3 on N-terminal lysine) [FAM-labeled hydrocarbon-stapled FADD Armadillo domain peptide; 6 …XDLQXRSK]
[1]; 0.1 µM
  percentage of neurons with apoptotic profiles: unable to significantly block apoptotic neuronal death
[1]; 1 µM, listed as FARMS
  percentage of neurons with apoptotic profiles: significantly reduced; also recorded: reduced evidence of chromatin condensation
[1]; 10 µM, listed as FARMS
  percentage of neurons with apoptotic profiles: significantly reduced; also recorded: restored neuronal death to WT levels
[2]; 10 µM, 48 hr, normalized to immunoprecipitated Flag-LRRK2, listed as FARMS
  amount of FADD that co-purified with G2019S-LRRK2 (LRRK2-FADD interaction): greatest, and most consistent, reduction; also recorded: reduced the interaction between LRRK2 and FADD
[2]; 0.1 to 10 µM, 24hr
  dose-dependency of the disruption of the LRRK2-FADD PPI: progressive reduction in the LRRK2-FADD PPI with increasing doses
R1441C-LRRK2
  phosphorylation of endogenous Rab10 (pT73) by R1441C-LRRK2: un-affected

— EP4467153A1, “CONSTRAINED PEPTIDE INHIBITORS OF LRRK2-FADD INTERACTIONS” (University of Georgia Research Foundation, Inc., priority 2023, dated 2024)
